Key:
[1] = system: dermal microvascular endothelial cells (H-DMVEC); test: Proliferation assay of dermal microvascular endothelial cells with bFGF; assay type: cell-based, human; details: 10 μM; 5 days; bFGF 10 ng/ml
Text: After 5 days of culture, cells were counted by trypan blue dye exclusion, as described above. Data from duplicate experiments are expressed as the number of […] grown in response to bFGF in the presence of indinavir, saquinavir or HIV-PI-resuspension buffer.

[2] = system: lung carcinoma (A549) cells; test: Lesions induced by A549 cells in nude mice; assay type: in vivo; details: 5×10^6 cells/site; daily treatment
Experimental: The treatment with HIV-PI or saline solution continued until sacrifice. The size of the lesions present at the injection site was evaluated daily by caliper measurement. External lesion area was then calculated as the product of the two major lesion diameters. The mean size (cm^2) of the lesions present at the injection site is shown.
To determine whether HIV-PI could inhibit the growth of malignant solid and lymphoid tumours, nude mice were inoculated with hepato-carcinoma cells (SK-Hep-1), lung carcinoma cells (A549), breast adeno-carcinoma cells (MDA-MB-468), myelo-monocytic leukaemia cells (U937), and T lymhocytic leukaemia cells (Jurkat).

[3] = system: bFGF-induced angiogenic KS-like lesions; test: bFGF-induced angiogenic KS-like lesions in nude mice; assay type: in vivo; details: for No. of mice with macroscopic vascular lesions/No. of inoculated mice / mice with macroscopic vascular lesions (%): bFGF 1 μg in matrigel, indinavir 1.4 mg/day or saquinavir 1 mg/day, intragastric gavage, 7 days; for Tissue staining (area % ± SD) CD31 / Tissue staining (area % ± SD) FVIII-RA: bFGF 1 μg, lesional area stained
Experimental: The mice were then inoculated with bFGF (1 μg) or with its diluting buffer in the presence of matrigel (Kleiner et al., 1993; Ensoli et al., 1994a; Samaniego et al., 1998; Barillari et al., 1999a).
The mice were then sacrificed and the inoculation areas examined both macroscopically and microscopically for the presence of KS-like angioproliferative lesions (Kleiner et al., 1993; Ensoli et al., 1994a; Samaniego et al., 1998; Barillari et al., 1999a).
At the time of sacrifice, the inoculation sites were examined to check for the presence of macroscopic angioproliferative lesions and analyzed microscopically after haematoxilin & eosin (H&E) staining or frozen for histochemical analysis of endothelial the cell markers FVIII-RA and CD31. Here are listed the number (No.) of mice that developed lesions with respect to the number (No.) of mice inoculated, and the percentage (%) of mice that developed lesions. […] Angiogenesis was quantitated by determining the tissue area stained for FVIII-RA or CD31. Shown are the percentages [mean±standard deviations (SD)] of lesional area stained for FVIII-RA or CD31 that were quantitated as described below.
These doses correspond, respectively, to the whole dose, double or half the dose of HIV-PI used daily in patients infected with HIV (Deeks et al., 1997). […] The control animals were treated with the same volume of saline solution. On the third day the mice were inoculated subcutaneously at the level of the lower dorsal quadrant with 1 μg of recombinant bFGF (Roche, Mannheim, Germany) diluted in 0.2 ml of phosphate buffer (PBS)-0.1% bovine […] albumin (BSA) or with its re-suspending buffer, mixed with 0.2 ml of Matrigel (Collaborative Biomedical Products, Bedford, Mass.) prior to inoculation, as described previously (Ensoli et al., 1994a). Four days later the mice were sacrificed, the inoculation sites were examined to check for the presence of macroscopic KS-like angioproliferative lesions, and sections of tissue histologically examined after staining with H&E. For immunohistochemical analysis, frozen tissue sections were fixed with cold acetone and stained with rabbit anti-human FVIII-RA polyclonal antibodies (Ab) (Dako, Glostrup, Denmark; 1:2000 dilution) or anti-mouse CD31 rat monoclonal Ab (BD Biosciences; 1:1000 dilution). Digital images (200× magnification) were captured by a color CCD camera (Zeiss) and analyzed by acquiring 4-9 microscopic fields (about 0.15 mm^2 per field) corresponding to the whole histologic sections. Staining was quantitated by the KS300 (Zeiss) image analysis software and expressed as the percentage of positive area over the total tissue area.

[4] = system: MMP-2; test: Gelatin zymography of supernatants from TPA-stimulated HUVEC; assay type: cell-based, human; details: TPA 50 nM; 8 hours; 10 μM
Experimental: HUVEC were cultivated for 24 hours in RPMI 1640 with the addition of 10% FBS. […] Aliquots of cell supernatants were then assayed for MMP-2 activity by gel zymography as described above. HT1080 is a tumour cell line secreting large amount of MMP-2 that was used as a control. […] The amount of supernatant analysed was normalised to the total cell number.

[5] = system: casein-degrading MMPs; test: Casein zymography of supernatants from HUVEC treated with bFGF or TPA; assay type: cell-based, human; details: 10 μM; 8 or 24 hours
Experimental: FIG. 11. Saquinavir blocks the production of casein-degrading MMPs by endothelial cells. […] Aliquots of cell supernatants normalised to total cell number were then analysed for MMP activity by gel zymography as described above in gels containing casein (2 mg/ml) instead of gelatin.). Panel A: casein zymography performed with cell supernatants harvested after 8 hours of culture in the presence of TPA or bFGF; Panel B: casein zymography performed with cell supernatants harvested after 24 hours of culture in the presence of TPA or bFGF. Casein is specifically cleaved by stromelysins (MMP-3, MMP-10, MMP-11) and matrilysin (MMP-7) (Whittaker and Ayscough, 2001) This led to the appearance of destained areas due to caseinolytic activity present in cell supernatants.

[6] = system: vascular permeability and oedema induced by KS cells; test: Vascular permeability and oedema induced by KS cells in nude mice (Evans blue); assay type: in vivo
Experimental: As a control, each animal was inoculated controlaterally with the same volume of diluting buffer and Matrigel. After 18 hours the animals were sacrificed and the quantity of staining decanted in the inoculation site of the KS cells was measured at the level of the two largest perpendicular diameters by means of a gauge. The quantity of staining decanted was also assessed after taking skin from the inoculation site and quantified with the spectrophotometer after extraction with formamide for 24 hours at 56° C. […] The quantity of staining decanted was calculated after subtraction of the optical density measured on the control site.
After 12 hours the animals were sacrificed, the stained area present on the site of inoculation of the KS cells was measured with a caliper and the extravasated dye was extracted from tissues with formamide and measured by spectrophotometry (Nakamura, Science 1992).

## CC(C)(C)NC(=O)[C@@H]1CN(Cc2cccnc2)CCN1C[C@@H](O)C[C@@H](Cc1ccccc1)C(=O)N[C@H]1c2ccccc2C[C@H]1O [Indinavir, indinavir]
[1]
  proliferation in response to bFGF: do not interfere
[2]
  development of lesions (lesion size): inhibit
[3]
  No. of mice with macroscopic vascular lesions/No. of inoculated mice: 8/28
  mice with macroscopic vascular lesions (%): 28%
  Tissue staining (area % ± SD) CD31: 1.00 ± 0.6%
  Tissue staining (area % ± SD) FVIII-RA: 1.32 ± 1.2%
[3]; in comparison with mice inoculated with bFGF and not treated
  angiogenesis and infiltration of the cells, microscopic examination of the inoculation sites: marked reduction
[4]
  total amount of MMP-2 released by cells in the presence of TPA: inhibited

## CC(C)(C)NC(=O)[C@@H]1C[C@@H]2CCCC[C@@H]2CN1C[C@@H](O)[C@H](Cc1ccccc1)NC(=O)[C@H](CC(N)=O)NC(=O)c1ccc2ccccc2n1 [Saquinavir, saquinavir]
[5]
  release of casein-degradation activity induced by bFGF or TPA: inhibited
[1]
  proliferation in response to bFGF: do not interfere
[2]
  development of lesions (lesion size): inhibit
[6]
  reduction of the stained area (measurement with a gauge/caliper): 47.5%
[6]; formamide extraction
  reduction of the amount of extravasated dye (spectrophotometer): 44.5%
[3]
  No. of mice with macroscopic vascular lesions/No. of inoculated mice: 7/28
  mice with macroscopic vascular lesions (%): 25%
  Tissue staining (area % ± SD) CD31: 0.83 ± 0.3%
  Tissue staining (area % ± SD) FVIII-RA: 1.13 ± 0.6%

— patent US20060088545A1, “Use of inhibitors of the protease of the human immunodeficiency virus (hiv) to block cell migration and/or invasion, tissue infiltration and oedema for the therary of diseases associated therewith” (priority 2001, published 2006)
